Experimental data from publication PMC5584254, “Identification of novel small molecule Beclin 1 mimetics activating autophagy” (Oncotarget, 2017).

Columns and labels:
PC-3a = test: MTT-based cytotoxicity assay, PC-3a; conditions: Homo sapiens, averages of at least two independent experiments, read-out: Cytotoxicity in different cell lines (IC50, μM) PC-3a
Text: (§1) Human prostate cancer cell lines PC-3 and DU145, were purchased from American Type Culture Collection (ATCC) and used within 50 passages. PC-3a is a derivative of PC-3 that is resistant to chemo/radiotherapy, established in our lab and confirmed by genotyping. All cells were maintained in DMEM (Mediatech, Manassas, VA) supplemented with 10% fetal bovine serum (FBS) (Sigma-Aldrich, St. Louis, MO), 1% Glutamine (Mediatech, Manassas, VA), 1% antibiotics (Mediatech, Manassas, VA). Compounds for primary FP-based HTS screening were from Prestwick, Microsource, University of Kansas Center of Excellence in Chemical Methodologies & Library Development (KU CMLD, Lawrence, KS), and Chembridge libraries. Compounds for MTT and SPR validation experiment were purchased from Microsource (Gaylordsville, CT) and Hit2lead Company (San Diego, CA). Acridine analogues, compound 1–6, were from our in-house library (provided by Specialized Chemistry Center, University of Kansas, Lawrence, KS); compound 7–17 were synthesized as described in supplementary information. (–)-Gossypol was isolated from racemic gossypol as we previously described. ABT-263 and DMSO were purchased from Sigma. MTT-based cytotoxicity assay and western blot analysis was carried out according to our previous publications. The primary antibodies used were LC3B (#2775) (Cell signaling Technology, Danvers, MA) and β-actin (A5441) (Sigma).

DU145 = test: MTT-based cytotoxicity assay, DU145; conditions: Homo sapiens, DU-145, averages of at least two independent experiments, read-out: Cytotoxicity in different cell lines (IC50, μM) DU145
Text: as §1

PC-3 = test: MTT-based cytotoxicity assay, PC-3; conditions: Homo sapiens, averages of at least two independent experiments, read-out: Cytotoxicity in different cell lines (IC50, μM) PC-3
Text: as §1

Bcl-xL protein = target: T1, Bcl-xL protein (Homo sapiens, UniProt Q07817); test: Surface plasmon resonance assay, immobilized Bcl-xL; format: binding; conditions: for binding level to Bcl-xL protein in SPR: 10 μM compound, Bcl-xL immobilized 10000 RU
T1 construct: made in house
T1 sequence (Q07817 whole entry): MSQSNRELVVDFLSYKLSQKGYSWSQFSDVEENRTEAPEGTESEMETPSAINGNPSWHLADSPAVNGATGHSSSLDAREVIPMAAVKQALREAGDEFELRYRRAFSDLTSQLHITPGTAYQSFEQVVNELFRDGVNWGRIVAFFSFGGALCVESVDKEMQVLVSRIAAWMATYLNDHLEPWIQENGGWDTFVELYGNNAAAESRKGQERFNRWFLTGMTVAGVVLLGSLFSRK
Protocol: (§2) The surface plasmon resonance experiments were performed using a Biacore 3000 (GE Healthcare Pittsburgh, PA) equipped with a research-grade CM5 sensor chip. The ligand (Bcl-xL) was immobilized using amine-coupling chemistry. The surfaces of flow cells on a Biacore sensor chip CM5 were activated for 7 min with a 1:1 mixture of 0.1 M NHS (N-hydroxysuccinimide) and 0.1 M EDC (3-(N,N-dimethylamino) propyl-N-ethylcarbodiimide) at a flow rate of 5 μL/min. The ligand (Bcl-xL) at a concentration of 180 μg/mL in 10 mM sodium acetate, pH 4.5, was immobilized at a density of about 10000 RU on flow cell 2; the ligand (SUMO-Bcl-2, 37.5 kDa, > 90% pure based on SDS–PAGE) at a concentration of 44 μg/ml in 10 mM sodium acetate, pH 4.5, was immobilized at a density of 10000 RU on flow cell 3; flow cell 1 was left blank to serve as a reference surface. All the surfaces were blocked with a 7 min injection of 1 M ethanolamine, pH 8.0.
(§3) For kinetic analysis, a concentration series of analyte were injected over the flow cells at a flow rate of 60 μL/min at 20 °C. The complex was allowed to associate and dissociate for 120 and 180 s, respectively. For binding studies, analyte (or test compound) was injected over the two flow cells in duplicate at indicated concentration at a flow rate of 60 μL/min at 20 °C. The running buffer consisted of 20 mM HEPES, 150 mM NaCl, 3 mM EDTA, 1 mM DTT, 0.05% P20, 5% DMSO, pH 7.4. The complex was allowed to associate and dissociate for 120 and 180 s, respectively. The buffer samples containing a range of 4–6% DMSO were injected at the beginning, used for solvent correction. The surfaces were regenerated between binding cycles with a 5 s injection of 5 mM NaOH for compounds and 10 mM Glycine pH 2.5 for 20-mer.
All measurements were taken with flow cell 1 as a reference (i.e. sensorgram depicts “2–1 correction”) and corrected for DMSO bulk differences via the calibration curves. To obtain kinetic rate constants (Ka and Kd), corrected response data were fit to a simple 1:1 interaction model using local fit (includes correction for mass transport limitations) available within Biaevaluation 3.1 software or Scrubber2 software. The equilibrium dissociation constant (KD) was determined by Kd/Ka.

[1] = tested on: PC-3 and PC-3a prostate cancer cells; test: Western blot of autophagy markers (LC3 conversion, P62); format: cell-based, Human
Protocol: Figure 5 Acridine compounds induce autophagy in prostate cancer cells (A) LC3-II conversion in western blot analysis indicated the activity of autophagy. Cells were treated with DMSO or compounds for 24 h, and then lysed and processed for western blot analysis of LC3. (–)G and EBSS were used as positive controls. […] Yellow puncta indicate autophagosome (overlay of red and green fluorescence); red puncta indicate autolysosome (due to green fluorescence quenching at the acidic condition). Cells expressing RFP-GFP-LC3 were treated with compounds A13, A15 or A21 at indicated concentration for 24 h.
Figure 8 Acridine compounds induce autophagy in PC-3 and PC-3a cancer cells LC3-II conversion in western blot analysis indicated the activity of autophagy. Cells were treated with DMSO or compounds for 24 h, and then lysed and processed for western blot analysis of LC3. (–)G and EBSS were used as positive controls.
as §1

[2] = target: Bcl-2 protein (SUMO-Bcl-2) (Homo sapiens, UniProt P10415); test: Surface plasmon resonance assay, immobilized Bcl-2; format: binding
Sequence of Bcl-2 protein (SUMO-Bcl-2) (P10415 1-211 limits assumed): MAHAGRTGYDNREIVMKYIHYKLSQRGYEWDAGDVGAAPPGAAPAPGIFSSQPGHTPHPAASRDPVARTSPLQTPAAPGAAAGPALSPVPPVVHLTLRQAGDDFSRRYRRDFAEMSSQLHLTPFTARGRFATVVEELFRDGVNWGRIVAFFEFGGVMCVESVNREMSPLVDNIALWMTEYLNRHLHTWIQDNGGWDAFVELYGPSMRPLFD
Protocol: as §2, §3
All measurements were taken with flow cell 1 as a reference (i.e. sensorgram depicts “2–1 correction”) and corrected for DMSO bulk differences via the calibration curves. […] The equilibrium dissociation constant (KD) was determined by Kd/Ka.

[3] = tested on: DU145, PC-3a and PC-3 prostate cancer cell lines; test: MTT-based cytotoxicity assay, all three prostate cancer cell lines; set-up: species or system Human; conditions: for IC50: Homo sapiens, DU-145, MTT, DU145, PC-3a and PC-3, read-out: cytotoxicity IC50, stated for all three cell lines together
Text: We also tested the cytotoxicity of the 17 compounds in human prostate cancer cell lines by MTT assay (Table 1).
as §1, with “PC-3a is a derivative of PC-3 that is resistant to chemo/radiotherapy, established in our lab and confirmed by genotyping.” left out, “Acridine analogues, compound 1–6, were from our in-house library (provided by Specialized Chemistry Center, University of Kansas, Lawrence, KS); compound 7–17 were synthesized as described in supplementary information.” left out

Compound: COc1ccc2nc3cc(Cl)ccc3c(N3CCN(C)CC3)c2c1 [Compound 9]
- melting point: 135 to 138 °C
- IC50 (PC-3a): 3.51 ± 1.15 µM
- IC50 (DU145): 6.24 ± 1.86 µM
- IC50 (PC-3): 2.93 ± 1.18 µM

Compound: CCN(CC)CCCCNc1c2ccc(Cl)cc2nc2ccc(OC)cc12 [Compound 7]
- kon (Bcl-xL protein; SPR kinetic analysis, 1:1 model, read-out: association rate (Ka) to Bcl-xL): 29600 M⁻¹ s⁻¹
- koff (Bcl-xL protein; SPR kinetic analysis, 1:1 model, read-out: dissociation rate (Kd) from Bcl-xL): 0.193 s⁻¹
- binding level to Bcl-xL protein in SPR (Bcl-xL protein; SPR): higher binding level than original hit A21
- Kd (Bcl-xL protein; SPR, KD = Kd/Ka, read-out: equilibrium dissociation constant KD to immobilized Bcl-xL): 6.5 µM
- selectivity for Bcl-xL protein over Bcl-2 (Bcl-xL protein; from SPR KD values): about 25 fold
- SQSTM1/P62 turnover [1]: degradation of P62
- LC3-I to LC3-II conversion ([1]; 24 h treatment): triggered the conversion of LC3-I to LC3-II
- kon ([2]; SPR kinetic analysis, 1:1 model, read-out: association rate (Ka) to Bcl-2): 3200 M⁻¹ s⁻¹
- koff ([2]; SPR kinetic analysis, 1:1 model, read-out: dissociation rate (Kd) from Bcl-2): 0.51 s⁻¹
- Kd ([2]; SPR, KD = Kd/Ka, read-out: equilibrium dissociation constant KD to immobilized Bcl-2): 160 µM
- IC50 (PC-3a): 0.1 ± 0.05 µM
- IC50 [3]: < 0.5 µM
- fold difference in IC50 value, PC-3 and PC-3a versus DU145 ([3]; higher cytotoxicity in PC-3 and PC-3a than in DU145): 3–5 fold
- IC50 (DU145): 0.27 ± 0.13 µM
- IC50 (PC-3): 0.11 ± 0.07 µM

Compound: COc1ccc2nc3cc(Cl)ccc3c(-c3ccc([N+](=O)[O-])cc3)c2c1 [Compound 14]
- melting point: 207 to 211 °C
- binding level to Bcl-xL protein in SPR (Bcl-xL protein; SPR): almost no binding
- IC50 (PC-3a): > 100 µM
- IC50 [3]: > 100 µM
- IC50 (DU145): > 100 µM
- IC50 (PC-3): > 100 µM
